Source: patent publication US10946016B2, “Solid forms of an epidermal growth factor receptor kinase inhibitor” (Celgene CAR LLC, priority 2012, dated 2021)

Assays:
[1] = Aqueous solubility: slurries in deionised water, HPLC; type: physicochemical; settings: slurry in deionised water shaken ca. 24 hours
Method: Slurries of all each polymorphic form were created in deionised water and shaken for ca. 24 hours. The resulting solid was then analysed by HPLC to determine the concentration of material dissolved.

[2] = Dynamic vapour sorption (DVS) with post DVS XRPD; type: physicochemical
Method: For dynamic vapour sorption (DVS), approximately 10 mg of sample was placed into a wire mesh vapour sorption balance pan and loaded into a DVS-1 dynamic vapour sorption balance by Surface Measurement Systems. The sample was subjected to a ramping profile from 20-90% relative humidity (RH) at 10% increments, maintaining the sample at each step until a stable weight had been achieved (99.5% step completion). After completion of the sorption cycle, the sample was dried using the same procedure, but all the way down to 0% RH and finally taken back to the starting point of 20% RH. The weight change during the sorption/desorption cycles were plotted, allowing for the hygroscopic nature of the sample to be determined.

[3] = Competitive slurries at ambient and 60° C. (polymorph stability studies); type: physicochemical; settings: slurrying at ambient and 60° C.
Method: The results from the competitive slurries carried out at ambient (ca. 22° C.) and 60° C. are tabulated below.

[4] = Stability at 40° C./75% RH for 1 week and 2 weeks (XRPD and HPLC); type: physicochemical; settings: open container
Method: Samples of each form were exposed to an environment of 40° C./75% RH for 1 week and 2 week periods to determine stability. Resulting solids were analysed by XRPD and HPLC to establish if any changes had occurred.

[5] = TGA of dehydrated material after standing on the bench (water pick-up); type: physicochemical; settings: heated to 115° C., then on the bench ca. 1 hour at ambient
Method: To test whether Form H picks up water after desolvating/dehydrating the material by heating to 115° C., a further test was carried out whereby Form H was heated to 115° C. in a TGA pan. The sample was then removed from the TGA pan and allowed to sit on the bench for ca. 1 hour. After 1 hour, another TGA was carried out up to 115° C. […] (FIG. 51).

[6] = XRPD after heating or drying (solid form conversion); type: physicochemical; settings: heated to 115° C.
Method: X-ray powder diffraction (XRPD) analysis was carried out on a Siemens D5000, scanning the samples between 3 and 30 or 50° 2-theta. For samples <100 mg, ca. 5-10 mg of sample was gently compressed onto a glass slide which fitted into the sample holder. For samples >100 mg, ca. 100 mg of sample was gently compressed into a plastic sample holder, so that the sample surface was smooth and just above the level of the sample holder. Measurements were made as follows: In order to determine the relationship between Forms A and B, a sample of Form B was heated to 120° C. and then XRPD analysis was carried out. […] To determine whether Form C remains the same after losing the solvent present, a sample of Form C was heated to 120° C. (i.e., just past the temperature at which the solvent is removed) and then XRPD analysis was carried out. […] In order to determine whether Form E remains the same after losing the solvent present, a sample of Form E was heated to 120° C. (i.e., just past the temperature at which the solvent is lost) and then XRPD analysis was carried out. […] In order to determine whether Form F remains the same after losing the solvent present, a sample of Form F was heated to 120° C. (i.e., just past the temperature at which the solvent is lost) and then XRPD analysis was carried out. […] To examine whether Form H changes to Form A after heating to 115° C. (point after the solvent loss), the Form H material was heated to 115° C. and XRPD analysis and DSC analysis were then carried out. […] The DSC analysis (FIG. 49) indicated overlapping endotherms between ca. 115-135° C., followed by an exotherm at peak 143.9° C., likely indicating a polymorphic transition. A final endotherm was present at onset 202.7° C. (peak 206.6° C.) corresponding with the Form A melt.

mutant EGFR kinase = experiment: Enzymatic and cellular assays of EGFR kinase inhibition; type: biochemical
[7] = test system: human non-small cell lung cancer cell; experiment: Non-small cell lung cancer cell proliferation in vitro; type: cell-based
[8] = test system: human non-small cell lung cancer cell; experiment: Non-small cell lung cancer cell proliferation in vivo

## C=CC(=O)Nc1cccc(Nc2nc(Nc3ccc(N4CCN(C(C)=O)CC4)cc3OC)ncc2C(F)(F)F)c1 [Form A, N-(3-(2-(4-(4-acetylpiperazin-1-yl)-2-methoxyphenylamino)-5-(trifluoromethyl)pyrimidin-4-ylamino)phenyl)acrylamide]
[1]
  detection by HPLC analysis for the aqueous solubility: could not be detected
[1]; assessment in words
  aqueous solubility: poor
[2]
  Post DVS XRPD (solid form): remained Form A
  hygroscopicity (DVS): non-hygroscopic
[2]; between 20 and 70% RH
  DVS water uptake: 0.87%
[3]
  relative polymorph stability: likely the more stable form in comparison with Form B
[4]; 1 week
  HPLC purity after storage: ca. 97.5%
  XRPD analysis after storage: still be consistent with Form A, with some loss in crystallinity
[4]; 2 week
  HPLC purity after storage: ca. 96.3%
  XRPD analysis after storage: still be consistent with Form A, however, it became poorly crystalline

## C=CC(=O)Nc1cccc(Nc2nc(Nc3ccc(N4CCN(C(C)=O)CC4)cc3OC)ncc2C(F)(F)F)c1 [Form H, N-(3-(2-(4-(4-acetylpiperazin-1-yl)-2-methoxyphenylamino)-5-(trifluoromethyl)pyrimidin-4-ylamino)phenyl)acrylamide]
[5]
  water pick-up of desolvated/dehydrated material: picked up water upon standing at ambient conditions
[6]
  XRPD after heating: still corresponded with Form H, with some loss in crystallinity

## C=CC(=O)Nc1cccc(Nc2nc(Nc3ccc(N4CCN(C(C)=O)CC4)cc3OC)ncc2C(F)(F)F)c1 [Compound 1, N-(3-(2-(4-(4-acetylpiperazin-1-yl)-2-methoxyphenylamino)-5-(trifluoromethyl)pyrimidin-4-ylamino)phenyl)acrylamide]
Mutant EGFR kinase
  selectivity for mutant EGFR as compared to wild-type EGFR: selective inhibitor of at least one mutation of EGFR
Mutant EGFR kinase; enzymatic and cellular assays
  inhibition of mutant EGFR kinase: selective covalent, irreversible inhibition of mutant EGFR kinase
[7]
  inhibition of cell proliferation: inhibit human non-small cell lung cancer cell proliferation
[8]
  inhibition of cell proliferation: inhibit human non-small cell lung cancer cell proliferation
